This passage reports IC50 results from patent publication US9051310B2, “Nicotinamide derivative or salt thereof” (FUJIFILM Corporation, priority 2011, dated 2015).

Bounds are passed on as bounds.

The target in the assay is T1, glutathione S-transferase (GST)-linked full-length human Syk protein (Homo sapiens, UniProt P43405).
T1 construct: glutathione S-transferase (GST)-linked full-length human Syk protein; purchased Carna Biosciences; host or cells: Baculovirus expression system
In words: Syk enzyme assay. It is filed as biochemical. Conditions: 0.83 nM Syk, time-resolved fluorescence; read-out: IC50 of Syk-inhibitory activity. An outline of the steps:
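Phosphotyrosine on a biotin-peptide substrate (0.5 μM) was read by time-resolved fluorescence at 615 and 665 nm with Eu-anti-pTyr antibody and APC-streptavidin after 1 h EDTA stop.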
In general, IC50 refers to the concentration at which inhibition is half-maximal. Consider `Cc1ncc(Nc2nc(N[C@H](C)[C@@H](N)C3CC3)c(F)cc2C(N)=O)cc1-n1nccn1` [Example 2-226, 6-(((1S,2R)-1-amino-1-cyclopropylpropan-2-yl)amino)-5-fluoro-2-((6-methyl-5-(2H-1,2,3-triazol-2-yl)pyridin-3-yl)amino)nicotinamide], for which the IC50 is 50 to 100 nM. As for `CC(C)C[C@@H](Nc1nc(Nc2ccc3nn(C)c(N(C)C)c3c2)c(C(N)=O)cc1F)[C@H](C)N` [Example 2-15, 6-(((2S,3R)-2-amino-5-methylhexan-3-yl)amino)-2-((3-(dimethylamino)-2-methyl-2H-indazol-5-yl)amino)-5-fluoronicotinamide], the figure is less than 10 nM; as for `CCn1ncc2c(Nc3nc(N[C@@H]4CCCC[C@@H]4N)c(F)cc3C(N)=O)cc(F)cc21` [Example 2-369, 6-(((1R,2S)-2-aminocyclohexyl)amino)-2-((1-ethyl-6-fluoro-1H-indazol-4-yl)amino)-5-fluoronicotinamide], less than 10 nM.

Turning to `CC[C@H](N)[C@@H](C)Nc1nc(Nc2cnc3c(c2)c(OC)nn3C)c(C(N)=O)cc1F` [Example 2-257, 6-(((2R,3S)-3-aminopentan-2-yl)amino)-5-fluoro-2-((3-methoxy-1-methyl-1H-pyrazolo[3,4-b]pyridin-5-yl)amino)nicotinamide], the IC50 is 50 to 100 nM. As for `CN(C)c1nn(C)c2ccc(Nc3nc(N[C@@H](CN)Cc4ccccc4)c(F)cc3C(N)=O)cc12` [Example 2-421, (R)-6-((1-amino-3-phenylpropan-2-yl)amino)-2-((3-(dimethylamino)-1-methyl-1H-indazol-5-yl)amino)-5-fluoronicotinamide], the IC50 lay in the range of 10 to 50 nM. As for `C[C@H](N)[C@H](Nc1nc(Nc2cnc(N3CCOCC3)nc2)c(C(N)=O)cc1F)C1CC1` [Example 2-563, 6-(((1R,2S)-2-amino-1-cyclopropylpropyl)amino)-5-fluoro-2-((2-morpholinopyrimidin-5-yl)amino)nicotinamide], the figure is 50 to 100 nM; as for `CCn1ncc2c(Nc3nc(N[C@H](c4ccc(F)c(F)c4)[C@H](C)N)c(F)cc3C(N)=O)cccc21` [Example 2-555, 6-(((1R,2S)-2-amino-1-(3,4-difluorophenyl)propyl)amino)-2-((1-ethyl-1H-indazol-4-yl)amino)-5-fluoronicotinamide], less than 10 nM; as for `COCCOc1cc(Nc2nc(N[C@H](C)[C@@H](N)C3CC3)c(F)cc2C(N)=O)ccn1` [Example 2-228, 6-(((1S,2R)-1-amino-1-cyclopropylpropan-2-yl)amino)-5-fluoro-2-((2-(2-methoxyethoxy)pyridin-4-yl)amino)nicotinamide], 50 to 100 nM. For `CCCC[C@@H](Nc1nc(Nc2cc(F)c3c(c2)c(N(C)C)nn3C)c(C(N)=O)cc1F)[C@H](C)N` [Example 2-189, 6-(((2S,3R)-2-aminoheptan-3-yl)amino)-2-((3-(dimethylamino)-7-fluoro-1-methyl-1H-indazol-5-yl)amino)-5-fluoronicotinamide], the IC50 was less than 10 nM. Turning to `CC[C@@H](Nc1nc(Nc2cncc3c2cnn3CCOC)c(C(N)=O)cc1F)[C@H](C)N` [Example 2-387, 6-(((2S,3R)-2-aminopentan-3-yl)amino)-5-fluoro-2-((1-(2-methoxyethyl)-1H-pyrazolo[3,4-c]pyridin-4-yl)amino)nicotinamide], the IC50 was 10 to 50 nM. As for `Cc1nn(C)c2ncc(Nc3nc(N[C@@H]4CCOC[C@@H]4N)c(F)cc3C(N)=O)cc12` [Example 2-333, 6-(((3R,4R)-3-aminotetrahydro-2H-pyran-4-yl)amino)-2-((1,3-dimethyl-1H-pyrazolo[3,4-b]pyridin-5-yl)amino)-5-fluoronicotinamide], the IC50 fell in the range of 10 to 50 nM.

Turning to `COCCn1ncc2c(Nc3nc(N[C@H](C4CC4)[C@H](C)N)c(F)cc3C(N)=O)cncc21` [Example 2-388, 6-(((1R,2S)-2-amino-1-cyclopropylpropyl)amino)-5-fluoro-2-((1-(2-methoxyethyl)-1H-pyrazolo[3,4-c]pyridin-4-yl)amino)nicotinamide], the IC50 is less than 10 nM. On to `CC(C)C[C@@H](Nc1nc(Nc2cccc3c2cnn3C)c(C(N)=O)cc1F)[C@H](C)N` [Example 2-12, 6-(((2S,3R)-2-amino-5-methylhexan-3-yl)amino)-5-fluoro-2-((1-methyl-1H-indazol-4-yl)amino)nicotinamide], for which the IC50 was less than 10 nM. As for `CC[C@H](N)[C@@H](CC)Nc1nc(Nc2cnc3c(c2)c(C)nn3C)c(C(N)=O)cc1F` [Example 2-248, 6-(((3R,4S)-4-aminohexan-3-yl)amino)-2-((1,3-dimethyl-1H-pyrazolo[3,4-b]pyridin-5-yl)amino)-5-fluoronicotinamide], the figure is 50 to 100 nM; as for `C[C@H](N)[C@H](Nc1nc(Nc2cncc3c2cnn3CC(F)F)c(C(N)=O)cc1F)C1CCC1` [Example 2-401, 6-(((1R,2S)-2-amino-1-cyclobutylpropyl)amino)-2-((1-(2,2-difluoroethyl)-1H-pyrazolo[3,4-c]pyridin-4-yl)amino)-5-fluoronicotinamide], less than 10 nM.

As to `C[C@H](N)[C@H](Nc1nc(Nc2cnc3c(c2)c(N(C)C)nn3C)c(C(N)=O)cc1F)C1CCC1` [Example 2-293, 6-(((1R,2S)-2-amino-1-cyclobutylpropyl)amino)-2-((3-(dimethylamino)-1-methyl-1H-pyrazolo[3,4-b]pyridin-5-yl)amino)-5-fluoronicotinamide], the IC50 was less than 10 nM. As for `CCC[C@@H](Nc1nc(Nc2cnc(OC)c(F)c2)c(C(N)=O)cc1F)[C@H](C)N` [Example 2-65, 6-(((2S,3R)-2-aminohexan-3-yl)amino)-5-fluoro-2-((5-fluoro-6-methoxypyridin-3-yl)amino)nicotinamide], the IC50 was 10 to 50 nM.

For `C[C@H](N)[C@H](Nc1nc(Nc2ccc3c(c2)c(OC(F)F)nn3C)c(C(N)=O)cc1F)C1CCC1` [Example 2-350, 6-(((1R,2S)-2-amino-1-cyclobutylpropyl)amino)-2-((3-(difluoromethoxy)-1-methyl-1H-indazol-5-yl)amino)-5-fluoronicotinamide], the IC50 was less than 10 nM. In the case of `COc1cc(Nc2nc(N[C@H](C(C)C)[C@H](C)N)c(F)cc2C(N)=O)ccn1` [Example 2-107, 6-(((2S,3R)-2-amino-4-methylpentan-3-yl)amino)-5-fluoro-2-((2-methoxypyridin-4-yl)amino)nicotinamide], the IC50 was 50 to 100 nM. Consider `COCCn1nc(N(C)C)c2cc(Nc3nc(N[C@H](CC(C)C)[C@H](C)N)c(F)cc3C(N)=O)ccc21` [Example 2-505, 6-(((2S,3R)-2-amino-5-methylhexan-3-yl)amino)-2-((3-(dimethylamino)-1-(2-methoxyethyl)-1H-indazol-5-yl)amino)-5-fluoronicotinamide], for which the IC50 fell in the range of 10 to 50 nM. As for `CNc1ncc(Nc2nc(N[C@H](CC(C)C)[C@H](C)N)c(F)cc2C(N)=O)cc1F` [Example 2-278, 6-(((2S,3R)-2-amino-5-methylhexan-3-yl)amino)-5-fluoro-2-((5-fluoro-6-(methylamino)pyridin-3-yl)amino)nicotinamide], the figure is 10 to 50 nM. For `COCCn1ncc2c(Nc3nc(N[C@@H]4CCOC[C@@H]4N)c(F)cc3C(N)=O)cncc21` [Example 2-385, 6-(((3R,4R)-3-aminotetrahydro-2H-pyran-4-yl)amino)-5-fluoro-2-((1-(2-methoxyethyl)-1H-pyrazolo[3,4-c]pyridin-4-yl)amino)nicotinamide], the IC50 fell in the range of 10 to 50 nM. On to `CC(C)c1ccc(Nc2nc(N[C@@H]3CCCC[C@@H]3N)c(F)cc2C(N)=O)cc1` [Example 2-448, 6-(((1R,2S)-2-aminocyclohexyl)amino)-5-fluoro-2-((4-isopropylphenyl)amino) nicotinamide], for which the half-maximal inhibitory concentration (IC50) lay in the range of 10 to 50 nM. Consider `COCCNc1nn(CCOC)c2ccc(Nc3nc(N[C@H](C4CC4)[C@H](C)N)c(F)cc3C(N)=O)cc12` [Example 2-537, 6-(((1R,2S)-2-amino-1-cyclopropylpropyl)amino)-5-fluoro-2-((1-(2-methoxyethyl)-3-((2-methoxyethyl)amino)-1H-indazol-5-yl)amino)nicotinamide], for which the IC50 was in the range of 10 to 50 nM.

For the compound `COc1ncc(Nc2nc(N[C@H](c3ccccc3)[C@H](C)N)c(F)cc2C(N)=O)cc1-n1ccnn1` [Example 2-336, 6-(((1R,2S)-2-amino-1-phenylpropyl)amino)-5-fluoro-2-((6-methoxy-5-(1H-1,2,3-triazol-1-yl)pyridin-3-yl)amino)nicotinamide], the IC50 is less than 10 nM.

With `CC[C@@H](Nc1nc(Nc2ccc3c(c2)c(OC)nn3CC(F)F)c(C(N)=O)cc1F)[C@H](C)N` [Example 2-55, 6-(((2S,3R)-2-aminopentan-3-yl)amino)-2-((1-(2,2-difluoroethyl)-3-methoxy-1H-indazol-5-yl)amino)-5-fluoronicotinainide], the IC50 was less than 10 nM. Turning to `CC[C@H](N)[C@@H](CC)Nc1nc(Nc2cc(F)c3c(c2)c(OC)nn3C)c(C(N)=O)cc1F` [Example 2-160, 6-(((3R,4S)-4-aminohexan-3-yl)amino)-5-fluoro-2-((7-fluoro-3-methoxy-1-methyl-1H-indazol-5-yl)amino)nicotinamide], the IC50 is less than 10 nM.

Regarding `COCCOc1ncc(Nc2nc(N[C@H](CC(C)C)[C@H](C)N)c(F)cc2C(N)=O)cc1-n1nccn1` [Example 2-140, 6-(((2S,3R)-2-amino-5-methylhexan-3-yl)amino)-5-fluoro-2-((6-(2-methoxyethoxy)-5-(2H-1,2,3-triazol-2-yl)pyridin-3-yl)amino)nicotinamide], the IC50 was 10 to 50 nM. As for `Cc1ncc(Nc2nc(N[C@@H](CN)Cn3cccn3)c(F)cc2C(N)=O)cc1F` [Example 2-469, (S)-6-((1-amino-3-(1H-pyrazol-1-yl)propan-2-yl)amino)-5-fluoro-2-((5-fluoro-6-methylpyridin-3-yl)amino)nicotinamide], the figure is 10 to 50 nM; as for `COc1cc(Nc2nc(N[C@H](C(C)C)[C@H](C)N)c(F)cc2C(N)=O)cc(OC)n1` [Example 2-108, 6-(((2S,3R)-2-amino-4-methylpentan-3-yl)amino)-2-((2,6-dimethoxypyridin-4-yl)amino)-5-fluoronicotinamide], 50 to 100 nM.
